Several values for one entry are separate records, joined by “and”; a condition that tells them apart may be missing. Equal values may be shown once. Read-outs that look alike come from different tables or passages of the source.
Assays:
Type in all cases: cell-based
[1] = test system: kanamycin resistant S. aureus; assay: Checkerboard titration assay for synergy of honeybee venom with antibiotics (OD660 growth curves)
S. aureus = assay: Equivalent doses of melittin fraction and whole honeybee venom with and without kanamycin (growth curves); conditions: doses of what is present: KANA = 2.5, MEL = 1.6, HBV = 2 (ug/ml)
Pseudomonas aeruginosa = conditions: Venom 40 ug/ml; for optical density, AVERAGE: AVERAGE line; for optical density: single replicates
Staphylococcus aureus = conditions: Venom 4 ug/ml; for optical density, AVERAGE: AVERAGE line; for optical density: single replicates
E. coli G1108E = assay: Checkerboard titration synergy assay of melittin analogues with polymyxin B; conditions: 5 ug/ml peptide with 6 units/ml polymyxin B; delay time until mid-log phase (FIG. 26)
[2] = Relative activity of analogues with respect to native melittin
Method: Also some of then analogues mentioned above were tested to determine their relative activities with respect to native melittin. The relative activity is calculated as follows: [formula]

[3] = 0 hours after innoculation, doses of what is present: Rifampicin 10 ug/ml
[4] = 0 hours after innoculation, doses of what is present: Rifampicin 20 ug/ml
[5] = 2 hours after innoculation, doses of what is present: Rifampicin 10 ug/ml
[6] = 2 hours after innoculation, doses of what is present: Rifampicin 20 ug/ml
[7] = 4 hours after innoculation, doses of what is present: Rifampicin 10 ug/ml
[8] = 4 hours after innoculation, doses of what is present: Rifampicin 20 ug/ml
[9] = 6 hours after innoculation, doses of what is present: Rifampicin 10 ug/ml
[10] = 6 hours after innoculation, doses of what is present: Rifampicin 20 ug/ml
[11] = 8 hours after innoculation, doses of what is present: Rifampicin 10 ug/ml
[12] = 8 hours after innoculation, doses of what is present: Rifampicin 20 ug/ml
[13] = 12 hours after innoculation, doses of what is present: Rifampicin 10 ug/ml
[14] = 12 hours after innoculation, doses of what is present: Rifampicin 20 ug/ml
[15] = 0 hours after innoculation, doses of what is present: Rifampicin .001 ug/ml
[16] = 0 hours after innoculation, doses of what is present: Rifampicin .01 ug/ml
[17] = 2 hours after innoculation, doses of what is present: Rifampicin .001 ug/ml
[18] = 2 hours after innoculation, doses of what is present: Rifampicin .01 ug/ml
[19] = 4 hours after innoculation, doses of what is present: Rifampicin .001 ug/ml
[20] = 4 hours after innoculation, doses of what is present: Rifampicin .01 ug/ml
[21] = 6 hours after innoculation, doses of what is present: Rifampicin .001 ug/ml
[22] = 6 hours after innoculation, doses of what is present: Rifampicin .01 ug/ml
[23] = 8 hours after innoculation, doses of what is present: Rifampicin .001 ug/ml
[24] = 8 hours after innoculation, doses of what is present: Rifampicin .01 ug/ml
[25] = 12 hours after innoculation, doses of what is present: Rifampicin .001 ug/ml
[26] = 12 hours after innoculation, doses of what is present: Rifampicin .01 ug/ml

Molecule: NC[C@H]1O[C@H](O[C@H]2[C@H](O)[C@@H](O[C@H]3O[C@H](CO)[C@@H](O)[C@H](N)[C@H]3O)[C@H](N)C[C@@H]2N)[C@H](O)[C@@H](O)[C@@H]1O [Kanamycin]
- MEAN A660 ([1]; KANA = 5, HBV = 0, T0): 0.016
- MEAN A660 ([1]; KANA = 5, HBV = 0, T2): 0.047
- MEAN A660 ([1]; KANA = 5, HBV = 0, T4): 0.204
- MEAN A660 ([1]; KANA = 5, HBV = 0, T6): 0.282
- MEAN A660 ([1]; KANA = 5, HBV = 0, T8): 0.351
- MEAN A660 ([1]; KANA = 5, HBV = 0, T12): 0.751
- MEAN A660 ([1]; KANA = 5, HBV = 0, T24): 1.152
- MEAN A660 ([1]; KANA = 10, HBV = 0, T0): 0.016
- MEAN A660 ([1]; KANA = 10, HBV = 0, T2): 0.047
- MEAN A660 ([1]; KANA = 10, HBV = 0, T4): 0.135
- MEAN A660 ([1]; KANA = 10, HBV = 0, T6): 0.172
- MEAN A660 ([1]; KANA = 10, HBV = 0, T8): 0.200
- MEAN A660 ([1]; KANA = 10, HBV = 0, T12): 0.397
- MEAN A660 ([1]; KANA = 10, HBV = 0, T24): 1.164
- MEAN A660 ([1]; KANA = 20, HBV = 0, T0): 0.016
- MEAN A660 ([1]; KANA = 20, HBV = 0, T2): 0.047
- MEAN A660 ([1]; KANA = 20, HBV = 0, T4): 0.123
- MEAN A660 ([1]; KANA = 20, HBV = 0, T6): 0.145
- MEAN A660 ([1]; KANA = 20, HBV = 0, T8): 0.166
- MEAN A660 ([1]; KANA = 20, HBV = 0, T12): 0.220
- MEAN A660 ([1]; KANA = 20, HBV = 0, T24): 0.975
- MEAN A660 ([1]; KANA = 40, HBV = 0, T0): 0.016
- MEAN A660 ([1]; KANA = 40, HBV = 0, T2): 0.047
- MEAN A660 ([1]; KANA = 40, HBV = 0, T4): 0.116
- MEAN A660 ([1]; KANA = 40, HBV = 0, T6): 0.146
- MEAN A660 ([1]; KANA = 40, HBV = 0, T8): 0.161
- MEAN A660 ([1]; KANA = 40, HBV = 0, T12): 0.184
- MEAN A660 ([1]; KANA = 40, HBV = 0, T24): 0.697
- MEAN A660 (S. aureus; T0): 0.021
- MEAN A660 (S. aureus; T2): 0.080
- MEAN A660 (S. aureus; T4): 0.692
- MEAN A660 (S. aureus; T6): 1.114
- MEAN A660 (S. aureus; T8): 1.217
- MEAN A660 (S. aureus; T12): 1.265
- MEAN A660 (S. aureus; T24): 1.330

Molecule: CO[C@H]1/C=C/O[C@@]2(C)Oc3c(C)c(O)c4c(O)c(c(/C=N/N5CCN(C)CC5)c(O)c4c3C2=O)NC(=O)/C(C)=C\C=C\[C@H](C)[C@H](O)[C@@H](C)[C@@H](O)[C@@H](C)[C@H](OC(C)=O)[C@@H]1C [Rifampicin]
- optical density, AVERAGE (Pseudomonas aeruginosa; [3]): .033
- optical density (Pseudomonas aeruginosa; [3]): .033
- optical density, AVERAGE (Pseudomonas aeruginosa; [4]): .033
- optical density (Pseudomonas aeruginosa; [4]): .033
- optical density, AVERAGE (Pseudomonas aeruginosa; [5]): .080
- optical density (Pseudomonas aeruginosa; [5]): .074 and .084 and .082
- optical density, AVERAGE (Pseudomonas aeruginosa; [6]): .057
- optical density (Pseudomonas aeruginosa; [6]): .053 and .056 and .063
- optical density, AVERAGE (Pseudomonas aeruginosa; [7]): .647
- optical density (Pseudomonas aeruginosa; [7]): .630 and .672 and .640
- optical density, AVERAGE (Pseudomonas aeruginosa; [8]): .351
- optical density (Pseudomonas aeruginosa; [8]): .375 and .326 and .380
- optical density, AVERAGE (Pseudomonas aeruginosa; [9]): .837
- optical density (Pseudomonas aeruginosa; [9]): .830 (2×) and .850
- optical density, AVERAGE (Pseudomonas aeruginosa; [10]): .688
- optical density (Pseudomonas aeruginosa; [10]): .660 and .645 and .700
- optical density, AVERAGE (Pseudomonas aeruginosa; [11]): .882
- optical density (Pseudomonas aeruginosa; [11]): .885 and .895 and .865
- optical density, AVERAGE (Pseudomonas aeruginosa; [12]): .737
- optical density (Pseudomonas aeruginosa; [12]): .730 and .720 and .760
- optical density, AVERAGE (Pseudomonas aeruginosa; [13]): .841
- optical density (Pseudomonas aeruginosa; [13]): .842 and .850 and .832
- optical density, AVERAGE (Pseudomonas aeruginosa; [14]): .735
- optical density (Pseudomonas aeruginosa; [14]): .730 (2×) and .745
- optical density, AVERAGE (Staphylococcus aureus; [15]): .046
- optical density (Staphylococcus aureus; [15]): .046
- optical density, AVERAGE (Staphylococcus aureus; [16]): .046
- optical density (Staphylococcus aureus; [16]): .046
- optical density, AVERAGE (Staphylococcus aureus; [17]): .072
- optical density (Staphylococcus aureus; [17]): .081 (2×) and .072
- optical density, AVERAGE (Staphylococcus aureus; [18]): .056
- optical density (Staphylococcus aureus; [18]): .056 and .054 and .058
- optical density, AVERAGE (Staphylococcus aureus; [19]): .807
- optical density (Staphylococcus aureus; [19]): .855 and .765 and .800
- optical density, AVERAGE (Staphylococcus aureus; [20]): .107
- optical density (Staphylococcus aureus; [20]): .140 and .068 and .112
- optical density, AVERAGE (Staphylococcus aureus; [21]): 1.17
- optical density (Staphylococcus aureus; [21]): 1.18 and 1.16 and 1.17
- optical density, AVERAGE (Staphylococcus aureus; [22]): .277
- optical density (Staphylococcus aureus; [22]): .372 and .156 and .304
- optical density, AVERAGE (Staphylococcus aureus; [23]): 1.26
- optical density (Staphylococcus aureus; [23]): 1.27 and 1.26 (2×)
- optical density, AVERAGE (Staphylococcus aureus; [24]): .898
- optical density (Staphylococcus aureus; [24]): 1.07 and .625 and 1.00
- optical density, AVERAGE (Staphylococcus aureus; [25]): 1.34
- optical density (Staphylococcus aureus; [25]): 1.34
- optical density, AVERAGE (Staphylococcus aureus; [26]): 1.32
- optical density (Staphylococcus aureus; [26]): 1.32 and 1.34 and 1.30

Molecule: Melittin (1-20) - Arg-Arg-Arg-Arg-Gln-Gln-NH2 [Analogue #5]
- relative in vitro activity, place in ascending order (E. coli G1108E): 8
- Relative Activity [2]: 300%

Molecule: Melittin (1-20) - Gly-Gly-Gly-Gly-Gln-Gln-NH2 [Analogue #7]
- relative in vitro activity, place in ascending order (E. coli G1108E): 1
- Relative Activity [2]: 20%

Molecule: Melittin (1-20) - Lys-Arg-Lys-Arg-Gly-Gly-NH2 [Analogue #4]
- relative in vitro activity, place in ascending order (E. coli G1108E): 7

Molecule: Melittin (1-20) - NH2 [Analogue #1]
- Relative Activity [2]: 20%

Molecule: NPS-Melittin: o-nitrophenyl sulfenyl group attached to the number 19 tryptophan residue of natural melittin
- relative in vitro activity, place in ascending order (E. coli G1108E): 3

Molecule: Synthetic Melittin: Synthetic melittin purchased from Peninsula Laboratories, Belmont, Calif.
- relative in vitro activity, place in ascending order (E. coli G1108E): 5

From US20010021697A1, “METHODS AND COMPOSITIONS FOR THE TREATMENT OF MAMMALIAN INFECTIONS EMPLOYING MEDICAMENTS COMPRISING HYMENOPTERA VENOM, PROTEINAGEOUS OR POLYPEPTIDE COMPONENTS THEREOF, OR ANALOGUES OF SUCH PROTEINACEOUS OR POLYPEPTIDE COMPONENTS” (priority 1987, published 2001)
